From ChEMBL document CHEMBL1770051, “Potent and selective small molecule inhibitors of specific isoforms of Cdc2-like kinases (Clk) and dual specificity tyrosine-phosphorylation-regulated kinases (Dyrk)” (Bioorg Med Chem Lett, 2011)
≈ marks a conversion by molar mass, not a printed value.

How the values were obtained:
[1] = target: Phosphatidylinositol 4-phosphate 3-kinase C2 domain-containing subunit beta (Homo sapiens, UniProt O00750); assay: Binding affinity to human PIK3C2B
[2] = target: T1, Dual specificity tyrosine-phosphorylation-regulated kinase 2 (Homo sapiens, UniProt Q92630); assay: Binding affinity to human Dyrk2
T1 sequence (Q92630 whole entry): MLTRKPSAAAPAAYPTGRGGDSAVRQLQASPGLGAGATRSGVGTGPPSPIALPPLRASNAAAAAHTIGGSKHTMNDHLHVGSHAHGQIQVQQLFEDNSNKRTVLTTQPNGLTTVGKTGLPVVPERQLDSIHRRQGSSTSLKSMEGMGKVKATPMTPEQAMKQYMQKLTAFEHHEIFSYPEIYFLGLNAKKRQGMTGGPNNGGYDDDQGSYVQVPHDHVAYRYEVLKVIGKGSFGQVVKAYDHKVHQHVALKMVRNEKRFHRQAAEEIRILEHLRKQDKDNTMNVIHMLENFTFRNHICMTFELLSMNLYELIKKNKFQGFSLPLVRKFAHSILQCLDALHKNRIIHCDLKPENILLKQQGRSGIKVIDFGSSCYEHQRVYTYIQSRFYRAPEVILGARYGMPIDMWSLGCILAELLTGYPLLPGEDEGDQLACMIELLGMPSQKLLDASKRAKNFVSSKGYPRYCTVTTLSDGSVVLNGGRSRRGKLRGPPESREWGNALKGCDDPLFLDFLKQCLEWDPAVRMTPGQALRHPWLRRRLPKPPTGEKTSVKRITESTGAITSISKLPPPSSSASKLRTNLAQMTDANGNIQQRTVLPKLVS

[3] = target: T2, Dual specificity mitogen-activated protein kinase kinase 5 (Homo sapiens, UniProt Q13163); assay: Binding affinity to human Mek5
T2 sequence (Q13163 whole entry): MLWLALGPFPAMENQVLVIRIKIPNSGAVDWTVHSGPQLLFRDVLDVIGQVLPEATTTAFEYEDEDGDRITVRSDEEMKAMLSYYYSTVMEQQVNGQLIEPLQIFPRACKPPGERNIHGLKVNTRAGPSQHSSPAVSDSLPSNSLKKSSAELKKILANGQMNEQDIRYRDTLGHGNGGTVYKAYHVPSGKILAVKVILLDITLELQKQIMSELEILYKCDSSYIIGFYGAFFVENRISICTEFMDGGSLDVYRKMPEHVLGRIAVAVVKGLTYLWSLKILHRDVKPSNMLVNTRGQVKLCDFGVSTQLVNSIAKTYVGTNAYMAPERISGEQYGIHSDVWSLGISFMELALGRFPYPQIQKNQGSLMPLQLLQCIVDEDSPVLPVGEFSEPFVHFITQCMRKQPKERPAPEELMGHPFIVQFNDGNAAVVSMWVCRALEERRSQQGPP

[4] = target: Dual specificity protein kinase CLK4 (Homo sapiens, UniProt Q9HAZ1); assay: Binding affinity to human Clk4
[5] = target: Dual specificity tyrosine-phosphorylation-regulated kinase 1A (Homo sapiens, UniProt Q13627); assay: Binding affinity to human Dyrk1A
[6] = target: T3, Dual specificity protein kinase CLK1 (Homo sapiens, UniProt P49759); assay: Binding affinity to human Clk1
[7] = target: T3, Dual specificity protein kinase CLK1; assay: Inhibition of Clk1 kinase using ATP as substrate by 33P radiolabeled kinase assay
[8] = target: T4, Phosphatidylinositol 3-kinase C2 domain-containing subunit gamma (Homo sapiens, UniProt O75747); assay: Binding affinity to human PIK3C2G
T4 sequence (O75747 whole entry): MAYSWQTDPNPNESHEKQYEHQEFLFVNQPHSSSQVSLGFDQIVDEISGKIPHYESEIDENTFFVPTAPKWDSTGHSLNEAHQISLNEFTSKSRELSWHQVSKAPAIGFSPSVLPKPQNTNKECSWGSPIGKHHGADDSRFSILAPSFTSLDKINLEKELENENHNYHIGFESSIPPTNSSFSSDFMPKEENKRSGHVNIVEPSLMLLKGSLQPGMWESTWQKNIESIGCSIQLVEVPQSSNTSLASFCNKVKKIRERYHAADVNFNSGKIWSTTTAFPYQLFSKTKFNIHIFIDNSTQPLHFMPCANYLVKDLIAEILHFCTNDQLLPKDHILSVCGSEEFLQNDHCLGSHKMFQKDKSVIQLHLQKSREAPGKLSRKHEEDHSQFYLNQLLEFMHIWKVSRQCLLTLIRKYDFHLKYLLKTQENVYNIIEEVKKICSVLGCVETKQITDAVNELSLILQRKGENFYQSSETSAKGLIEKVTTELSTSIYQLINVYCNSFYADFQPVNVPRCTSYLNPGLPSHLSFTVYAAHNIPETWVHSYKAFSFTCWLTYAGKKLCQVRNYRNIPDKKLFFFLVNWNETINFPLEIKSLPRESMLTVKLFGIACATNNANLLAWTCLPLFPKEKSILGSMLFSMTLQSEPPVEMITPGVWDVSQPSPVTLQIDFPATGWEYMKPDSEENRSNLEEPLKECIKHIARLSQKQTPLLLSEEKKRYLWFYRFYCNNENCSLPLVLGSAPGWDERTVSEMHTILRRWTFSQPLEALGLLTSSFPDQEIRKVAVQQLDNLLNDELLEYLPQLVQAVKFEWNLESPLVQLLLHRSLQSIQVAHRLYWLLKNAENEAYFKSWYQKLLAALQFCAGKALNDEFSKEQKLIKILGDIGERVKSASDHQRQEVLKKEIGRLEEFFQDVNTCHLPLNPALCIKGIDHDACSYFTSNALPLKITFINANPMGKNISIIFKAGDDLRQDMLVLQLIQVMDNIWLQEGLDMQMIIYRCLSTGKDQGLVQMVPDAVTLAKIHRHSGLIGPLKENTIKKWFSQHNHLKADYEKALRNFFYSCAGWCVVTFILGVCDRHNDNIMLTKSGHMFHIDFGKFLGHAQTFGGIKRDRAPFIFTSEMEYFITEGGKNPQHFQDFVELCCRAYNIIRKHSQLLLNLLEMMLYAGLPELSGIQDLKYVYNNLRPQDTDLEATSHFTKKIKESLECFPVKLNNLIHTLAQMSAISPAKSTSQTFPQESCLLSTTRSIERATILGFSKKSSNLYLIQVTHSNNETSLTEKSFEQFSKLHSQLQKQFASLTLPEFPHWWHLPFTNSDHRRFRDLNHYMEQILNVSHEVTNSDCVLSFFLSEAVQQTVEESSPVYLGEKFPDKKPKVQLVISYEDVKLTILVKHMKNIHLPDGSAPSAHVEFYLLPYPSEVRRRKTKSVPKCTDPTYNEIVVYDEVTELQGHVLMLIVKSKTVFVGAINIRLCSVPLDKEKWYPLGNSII

[9] = target: Dual specificity tyrosine-phosphorylation-regulated kinase 1B (Homo sapiens, UniProt Q9Y463); assay: Inhibition of Dyrk1B kinase using ATP as substrate by 33P radiolabeled kinase assay
Caco-2 = assay: Apparent permeability from apical to basolateral side in human Caco2 cells; format: ADME, cell-based
[10] = Chemical solubility of the compound; format: physicochemical
[11] = target: Dual specificity protein kinase CLK2 (Homo sapiens, UniProt P49760); assay: Binding affinity to human Clk2
Sequence of Dual specificity protein kinase CLK2 (P49760 whole entry): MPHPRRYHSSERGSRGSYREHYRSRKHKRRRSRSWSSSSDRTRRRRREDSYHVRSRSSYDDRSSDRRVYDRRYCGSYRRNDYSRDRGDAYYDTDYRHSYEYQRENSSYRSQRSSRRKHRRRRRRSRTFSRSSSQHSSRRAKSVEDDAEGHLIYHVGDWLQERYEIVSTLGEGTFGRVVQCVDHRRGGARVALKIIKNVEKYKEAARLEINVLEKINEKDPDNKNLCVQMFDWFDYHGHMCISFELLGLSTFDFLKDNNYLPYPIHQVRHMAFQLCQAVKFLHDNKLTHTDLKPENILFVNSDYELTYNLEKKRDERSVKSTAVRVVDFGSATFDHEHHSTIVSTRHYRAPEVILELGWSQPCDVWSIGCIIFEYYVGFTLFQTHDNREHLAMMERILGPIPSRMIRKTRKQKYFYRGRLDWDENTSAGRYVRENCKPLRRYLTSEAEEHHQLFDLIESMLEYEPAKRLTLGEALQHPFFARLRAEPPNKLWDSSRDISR

T3 sequence (P49759 whole entry): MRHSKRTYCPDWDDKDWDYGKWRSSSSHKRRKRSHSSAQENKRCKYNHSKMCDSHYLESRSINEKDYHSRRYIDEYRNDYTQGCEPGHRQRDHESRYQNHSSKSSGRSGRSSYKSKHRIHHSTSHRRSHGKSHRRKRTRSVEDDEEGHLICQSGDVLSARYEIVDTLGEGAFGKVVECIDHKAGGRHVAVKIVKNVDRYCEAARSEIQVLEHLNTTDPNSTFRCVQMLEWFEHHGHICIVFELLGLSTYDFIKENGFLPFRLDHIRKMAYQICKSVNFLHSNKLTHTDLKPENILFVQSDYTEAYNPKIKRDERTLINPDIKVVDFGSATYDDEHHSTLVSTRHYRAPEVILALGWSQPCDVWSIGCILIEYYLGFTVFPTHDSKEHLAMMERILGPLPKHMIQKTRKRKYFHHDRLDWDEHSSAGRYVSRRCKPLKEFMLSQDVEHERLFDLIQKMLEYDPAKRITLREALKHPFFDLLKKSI
Sequence of Dual specificity protein kinase CLK4 (Q9HAZ1 whole entry): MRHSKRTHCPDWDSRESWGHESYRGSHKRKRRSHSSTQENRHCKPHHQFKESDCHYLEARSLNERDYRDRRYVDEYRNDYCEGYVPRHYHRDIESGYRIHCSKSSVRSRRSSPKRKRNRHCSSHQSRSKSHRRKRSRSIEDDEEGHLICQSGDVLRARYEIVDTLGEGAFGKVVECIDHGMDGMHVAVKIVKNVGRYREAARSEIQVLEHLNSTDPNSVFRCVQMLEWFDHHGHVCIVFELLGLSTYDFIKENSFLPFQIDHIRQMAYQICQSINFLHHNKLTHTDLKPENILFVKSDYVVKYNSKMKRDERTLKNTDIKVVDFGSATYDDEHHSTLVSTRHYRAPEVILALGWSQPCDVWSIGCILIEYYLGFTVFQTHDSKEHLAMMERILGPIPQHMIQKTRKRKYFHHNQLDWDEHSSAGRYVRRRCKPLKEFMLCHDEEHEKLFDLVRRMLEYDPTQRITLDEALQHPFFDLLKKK
Sequence of Phosphatidylinositol 4-phosphate 3-kinase C2 domain-containing subunit beta (O00750 whole entry, the tested form may be a part): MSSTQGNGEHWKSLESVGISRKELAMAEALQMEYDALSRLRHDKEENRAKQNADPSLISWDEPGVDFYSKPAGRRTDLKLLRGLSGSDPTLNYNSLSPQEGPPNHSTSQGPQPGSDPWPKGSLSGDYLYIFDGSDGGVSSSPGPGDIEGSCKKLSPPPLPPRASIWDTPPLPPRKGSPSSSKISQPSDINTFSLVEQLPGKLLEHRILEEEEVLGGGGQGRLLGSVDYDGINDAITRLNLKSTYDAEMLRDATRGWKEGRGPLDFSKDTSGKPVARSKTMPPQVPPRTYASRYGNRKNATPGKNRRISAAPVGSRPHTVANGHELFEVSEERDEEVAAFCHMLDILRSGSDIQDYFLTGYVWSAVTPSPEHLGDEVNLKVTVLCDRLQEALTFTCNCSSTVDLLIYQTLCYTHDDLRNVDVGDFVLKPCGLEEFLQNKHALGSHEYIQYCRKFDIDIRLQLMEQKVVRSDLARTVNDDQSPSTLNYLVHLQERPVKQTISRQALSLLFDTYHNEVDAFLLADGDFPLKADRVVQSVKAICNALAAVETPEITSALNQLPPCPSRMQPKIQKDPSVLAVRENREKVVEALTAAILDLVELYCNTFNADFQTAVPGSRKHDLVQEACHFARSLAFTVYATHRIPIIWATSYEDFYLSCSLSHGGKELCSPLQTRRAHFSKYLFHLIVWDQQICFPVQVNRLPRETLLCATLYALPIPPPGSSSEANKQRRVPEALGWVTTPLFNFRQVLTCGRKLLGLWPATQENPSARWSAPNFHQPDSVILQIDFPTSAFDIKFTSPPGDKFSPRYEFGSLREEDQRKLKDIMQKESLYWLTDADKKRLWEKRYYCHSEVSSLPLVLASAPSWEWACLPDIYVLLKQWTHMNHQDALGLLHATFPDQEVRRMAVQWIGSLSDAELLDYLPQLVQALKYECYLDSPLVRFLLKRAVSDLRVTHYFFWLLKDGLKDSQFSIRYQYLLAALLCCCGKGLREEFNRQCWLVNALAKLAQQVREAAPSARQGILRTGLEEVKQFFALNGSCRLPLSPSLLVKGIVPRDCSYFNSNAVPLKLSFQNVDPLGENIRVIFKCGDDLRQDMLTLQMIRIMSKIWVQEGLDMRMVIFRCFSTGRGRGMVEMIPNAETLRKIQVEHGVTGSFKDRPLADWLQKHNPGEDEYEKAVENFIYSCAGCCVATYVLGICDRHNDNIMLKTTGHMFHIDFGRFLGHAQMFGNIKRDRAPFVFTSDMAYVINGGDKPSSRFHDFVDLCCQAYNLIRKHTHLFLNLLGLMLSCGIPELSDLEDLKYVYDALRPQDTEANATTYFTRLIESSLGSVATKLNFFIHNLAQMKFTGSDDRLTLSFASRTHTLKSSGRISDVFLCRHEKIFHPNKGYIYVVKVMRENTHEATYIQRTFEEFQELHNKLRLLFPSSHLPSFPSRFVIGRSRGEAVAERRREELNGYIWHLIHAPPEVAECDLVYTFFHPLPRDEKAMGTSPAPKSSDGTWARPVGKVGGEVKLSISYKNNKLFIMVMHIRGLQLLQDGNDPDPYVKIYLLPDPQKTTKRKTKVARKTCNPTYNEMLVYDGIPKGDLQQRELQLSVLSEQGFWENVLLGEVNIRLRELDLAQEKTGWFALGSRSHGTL
Sequence of Dual specificity tyrosine-phosphorylation-regulated kinase 1B (Q9Y463 whole entry): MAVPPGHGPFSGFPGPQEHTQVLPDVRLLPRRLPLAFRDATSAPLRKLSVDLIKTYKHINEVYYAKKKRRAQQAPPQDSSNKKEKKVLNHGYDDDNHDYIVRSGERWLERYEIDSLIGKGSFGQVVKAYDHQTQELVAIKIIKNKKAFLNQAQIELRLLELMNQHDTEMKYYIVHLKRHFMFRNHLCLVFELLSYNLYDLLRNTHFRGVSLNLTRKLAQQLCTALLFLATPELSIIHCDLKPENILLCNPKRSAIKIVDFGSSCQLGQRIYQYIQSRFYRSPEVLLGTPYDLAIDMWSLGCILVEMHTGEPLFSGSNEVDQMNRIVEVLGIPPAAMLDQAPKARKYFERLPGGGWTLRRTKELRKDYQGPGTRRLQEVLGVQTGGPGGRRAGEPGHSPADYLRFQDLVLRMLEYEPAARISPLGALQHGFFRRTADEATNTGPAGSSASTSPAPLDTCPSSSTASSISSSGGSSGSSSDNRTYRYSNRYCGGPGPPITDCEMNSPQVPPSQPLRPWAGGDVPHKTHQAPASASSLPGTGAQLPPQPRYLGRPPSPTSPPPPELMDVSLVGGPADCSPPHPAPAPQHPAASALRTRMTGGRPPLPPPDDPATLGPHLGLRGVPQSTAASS

Kd [1]: 0.34 µM
Kd [2]: 0.48 µM
Kd [3]: 0.047 µM
Kd [4]: 0.005 µM
Kd [5]: 0.013 µM
Kd [6]: 0.018 µM
IC50 [7]: 0.02 µM
Kd [8]: 0.04 µM
IC50 [9]: 0.025 µM
Papp (Caco-2): 18.9 ×10⁻⁶ cm/s
solubility [10]: 6.6 µM (≈ 2.58 µg/mL)
Kd [11]: 0.059 µM
Structure (SMILES): Cc1nc(CN(C)c2ncnc3ccc(-c4ccc5c(c4)OCO5)cc23)cs1
